# Reference: ChEMBL document CHEMBL1144079, “7-Hydroxyceratinamine, a new cyanoformamide-containing metabolite from a sponge, Aplysinella sp” (J Nat Prod, 1999)
# Active and inactive are the calls of the source. The rule behind the calls is not given here.
# Tested on: U-937
# Test: Induction of apoptosis in human U937 cells
# Type: functional, cell-based
row,SMILES,Activity
1,NCCCOc1c(Br)cc(CCN)cc1Br,inactive
2,C[N+](C)(C)CCc1cc(Br)c(O)c(Br)c1,inactive
3,N#CC(=O)NCCCOc1c(Br)cc(C(O)CN)cc1Br (centres undefined),inactive
4,N#CC(=O)NCCCOc1c(Br)cc(CCN)cc1Br,inactive
